The values below come from publication PMC11483813, “Bombesin-Targeted Delivery of β-Carboline-Based Ir(III) and Ru(II) Photosensitizers for a Selective Photodynamic Therapy of Prostate Cancer” (Inorganic Chemistry, 2024).

Details of data set [1]: method as in earlier work. To be noted: standard reference; H2O:DMSO (55:45); ref 6 (SI); cited from earlier work.
Data set [2] relates to A549 lung cancer cells. Type of data set: cell-based, human. To be noted: A549; 4 h incubation, kept in the dark 1 h; MTT after 48 h; read-out: IC50 A549 Dark. On the procedure: (§1) The effect of Ir-H, Ir-Me, Ru-H, and Ru-Me on cell viability was evaluated in the A549 lung cancer and PC-3 prostate cancer cell lines by MTT assays. PC-3 cells were specifically chosen due to their high expression levels of GRPR on their surface, allowing for further evaluation of the activity of the BN3-derived metallopeptides Ir-BN and Ru-BN.[38],[51] In contrast, A549 cells express low levels of GRPR.[52] MRC-5 fibroblasts were used as a nonmalignant cell model.[53]Table 3 reports the half maximal inhibitory concentration (IC50) values obtained after treating the cells either under dark conditions or upon exposure to blue light at a dose of 24.1 J cm^–2. The photocytotoxicity index (PI), defined as the IC50,dark/IC50,light, is provided for each compound.
(§2) Stock solutions of the complexes and metallopeptides were initially prepared at a concentration of 5 mM in DMSO and then diluted in sterile distilled water to achieve a final concentration of 1 mM, with a resulting DMSO concentration of 20% v/v. Cells were seeded into 96-well plates at a density of 2500 cells/well for A549, 3500 cells/well for PC-3, and 5500 cells/well for MRC-5. Following 24 h of incubation for attachment, cells were treated in triplicate with freshly prepared working solutions of the compounds in the culture medium at concentrations ranging from 0.001 to 100 μM. The maximum DMSO concentration in the working solutions was 2% (v/v). The working concentrations for each compound were adjusted based on their cytotoxicity. Following a 4 h incubation period to allow internalization of the compounds into the cells, the plates were kept in dark conditions or exposed to blue (460 nm) or red (655 nm) light for 1 h using an LED system (LuxLight), providing a total dose of 24.1 J cm^–2. All plates were incubated in the dark for an additional 43 h. Cells were then washed with phosphate-buffered saline (PBS), and 100 μL of fresh culture medium containing 10% of 3-[4,5-dimethylthiazol-2-yl]-2,5 diphenyl tetrazolium bromide (MTT) solution (0.5 mg/mL) (Sigma- Aldrich) was added to each well. After a 2 h incubation period, the formazan crystals were dissolved in DMSO, and the absorbance was measured at 570 nm using a Multiscan Plate Reader (Synergy 4, Biotek, Winooski, USA). The concentration causing a 50% reduction in cell viability (IC50) was determined for each compound with the Gen5 software (BioTek). At least three independent experiments were conducted for each compound.

In data set [3] the test system is MRC-5 fibroblasts. Type of data set: cell-based, human. To be noted: MRC-5; 4 h incubation, kept in the dark 1 h; MTT after 48 h; read-out: IC50 MRC-5 Dark. On the procedure: as §1, §2
Data set [4] has as its system PC-3 prostate cancer cells. Type of data set: cell-based, human. To be noted: PC-3; 4 h incubation, kept in the dark 1 h; MTT after 48 h; read-out: IC50 PC-3 Dark. On the procedure: as §1, §2

A word on the IC50: it is the midpoint of a concentration-inhibition curve.

For the molecule `O=C([O-])c1c(Cl)c(Cl)c(Cl)c(Cl)c1-c1c2cc(I)c(=O)c(I)c-2oc2c(I)c([O-])c(I)cc12.[Na+].[Na+]` [rose bengal], the “singlet oxygen quantum yield (ΦΔ)” value in data set [1] is 0.75.

In the case of `N.N.[Cl][Pt][Cl]` [Cisplatin, reference compound], the results for the concentration for half-maximal inhibition (IC50) in data set [2], in data set [3] and in data set [4] were 5.99 ± 1.2 µM, 5.34 ± 0.38 µM and 5.55 ± 0.97 µM, respectively.
